Assays:
GSK3β = GSK3β (Homo sapiens, UniProt P49841); assay: GSK3beta assay (SPA, biotinylated phosphorylated CREB peptide, ATP-P33); assay type: biochemical; details: −log IC50 (M); given as ranges (>8; 7-8; <7); read-out: pIC50 (GSK3beta) (converted)
Experimental: (§1) GSK3beta assays were performed at room temperature in a 100 μl reaction volume of 25 mM Tris (ph 7.4) containing 10 mM MgCl2.6H2O 1 mM DTT, 0.1 mg/ml BSA, 5% glyceol and containing 5.7 ng/μl GSK3β, 5 μM biotinylated phosphorylated CREB peptide, 1 μM APT, 0.85 μCi/ml ATP-P^33 and a suitable amount of a test compound of formula (I). After one hour, the reaction was terminated by adding 70 μl of Stop mix (0.1 mM APT, 5 mg/ml streptavidin coated PVT SPA bead pH 11.0). The beads to which the phosphorylated CREB peptide is attached were allowed to settle overnight and the radioactivity of the beads was counted in a microtiterplate scintillation counter and compared with the results obtained in a control experiment (without the presence of a test compound) in order to determine the percentage of GSK3β inhibition. The IC50 value, i.e. the concentration (M) of the test compound at which 50% of GSK3β is inhibited, was calculated from the dose response curve obtained by performing the above-described GSKK3β assay in the presence of different amounts of the test compound.

GSK3alpha = GSK3alpha (Homo sapiens, UniProt P49840); assay: GSK3alpha assay (same as the GSK3beta assay, GSK3alpha 0.25 ng/μl); assay type: biochemical; details: −log IC50 (M); given as ranges (>8; 7-8; <7); read-out: pIC50 (GSK3alpha) (converted)
Experimental: as §1
The GSK3alpha assay was performed in the same way as described above for the GSK3beta assay except for the concentration of GSK3alpha which is 0.25 ng/μl.

Sequence of GSK3alpha (P49840 whole entry, species assumed): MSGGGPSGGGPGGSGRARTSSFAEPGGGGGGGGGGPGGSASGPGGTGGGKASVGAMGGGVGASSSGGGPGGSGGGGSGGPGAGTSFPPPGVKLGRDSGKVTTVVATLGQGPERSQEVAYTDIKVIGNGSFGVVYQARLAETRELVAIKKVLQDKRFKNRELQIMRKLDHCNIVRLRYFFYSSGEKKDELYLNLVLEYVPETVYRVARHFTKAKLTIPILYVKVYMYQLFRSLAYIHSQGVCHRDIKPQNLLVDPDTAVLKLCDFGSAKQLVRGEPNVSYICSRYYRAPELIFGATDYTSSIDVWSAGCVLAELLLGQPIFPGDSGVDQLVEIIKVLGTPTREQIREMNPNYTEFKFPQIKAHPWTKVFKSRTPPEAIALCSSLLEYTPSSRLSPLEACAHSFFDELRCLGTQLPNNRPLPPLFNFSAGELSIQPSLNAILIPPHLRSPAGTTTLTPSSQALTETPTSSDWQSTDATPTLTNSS
Sequence of GSK3β (P49841 whole entry, species assumed): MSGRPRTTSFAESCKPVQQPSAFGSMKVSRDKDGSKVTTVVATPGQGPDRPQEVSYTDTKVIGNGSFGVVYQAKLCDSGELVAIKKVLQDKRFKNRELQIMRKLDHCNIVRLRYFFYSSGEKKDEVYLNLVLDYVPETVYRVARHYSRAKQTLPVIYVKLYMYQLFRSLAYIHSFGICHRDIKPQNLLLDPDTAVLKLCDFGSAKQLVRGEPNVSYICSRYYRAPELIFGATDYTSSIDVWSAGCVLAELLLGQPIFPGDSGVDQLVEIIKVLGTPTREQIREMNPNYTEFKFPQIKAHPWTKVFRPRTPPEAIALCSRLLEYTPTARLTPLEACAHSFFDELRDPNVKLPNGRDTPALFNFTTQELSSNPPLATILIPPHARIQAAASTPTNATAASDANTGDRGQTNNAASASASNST

| Structure (SMILES) | IC50 (GSK3β) | IC50 (GSK3alpha) |
| --- | --- | --- |
| CC(=O)NCc1cccc(-n2nnc3cnc(Nc4cccc(S(C)(=O)=O)c4)nc32)c1 [Compound 113] | < 1e-08 M | < 1e-08 M |
| COCc1cccc(-n2nnc3cnc(Nc4cccc(C(=O)O)c4)nc32)c1 [Compound 121] | 1e-08 to 1e-07 M | 1e-08 to 1e-07 M |
| CSc1cccc(Nc2ncc3nnn(-c4cccc(F)c4)c3n2)c1 [Compound 122] | < 1e-08 M | < 1e-08 M |
| O=C(O)c1ccc(Nc2ncc3nnn(-c4cccc(Br)c4)c3n2)cc1 [Compound 124] | < 1e-08 M | < 1e-08 M |
| COCc1cccc(-n2nnc3cnc(Nc4ccc(C(=O)O)cc4)nc32)c1 [Compound 125] | < 1e-08 M | < 1e-08 M |
| CC(=O)NCc1cccc(-n2nnc3cnc(Nc4ccc(C(=O)O)cc4)nc32)c1 [Compound 126] | < 1e-08 M | < 1e-08 M |
| CC(=O)N(C)c1ccc(Nc2ncc3nnn(-c4cccc(F)c4)c3n2)cc1 [Compound 135] | < 1e-08 M | < 1e-08 M |
| O=C(O)c1ccc(Nc2ncc3nnn(-c4cccc(F)c4)c3n2)cc1O [Compound 136] | < 1e-08 M | < 1e-08 M |
| O=C(O)c1ccc(Nc2ncc3nnn(-c4cccc(F)c4)c3n2)cc1Cl [Compound 137] | < 1e-08 M | < 1e-08 M |
| COCc1cccc(-n2nnc3cnc(Nc4cccc(S(=O)(=O)NCC(N)=O)c4)nc32)c1 [Compound 141] | 1e-08 to 1e-07 M | 1e-08 to 1e-07 M |
| COCc1cccc(-n2nnc3cnc(Nc4cccc(S(=O)(=O)NCCO)c4)nc32)c1 [Compound 142] | < 1e-08 M | < 1e-08 M |
| COCc1cccc(-n2nnc3cnc(Nc4cccc(C(C)O)c4)nc32)c1 (stereo not shown) [Compound 143] | < 1e-08 M | < 1e-08 M |
| NS(=O)(=O)c1ccc(Nc2ncc3nnn(-c4cccc(F)c4)c3n2)cc1 [Compound 145] | < 1e-08 M | < 1e-08 M |
| COCc1cccc(-n2nnc3cnc(Nc4ccc(S(N)(=O)=O)cc4)nc32)c1 [Compound 146] | < 1e-08 M | < 1e-08 M |
| COCc1cccc(-n2nnc3cnc(Nc4cccc(C(=O)NCCNC(C)=O)c4)nc32)c1 [Compound 149] | 1e-08 to 1e-07 M | < 1e-08 M |
| OCCc1cccc(Nc2ncc3nnn(-c4cccc(F)c4)c3n2)c1 [Compound 150] | < 1e-08 M | < 1e-08 M |
| COCc1cccc(-n2nnc3cnc(Nc4cccc(CCO)c4)nc32)c1 [Compound 151] | < 1e-08 M | < 1e-08 M |
| NC(=O)Cc1cccc(Nc2ncc3nnn(-c4cccc(F)c4)c3n2)c1 [Compound 153] | < 1e-08 M | < 1e-08 M |
| COCC(=O)NCc1cccc(-n2nnc3cnc(Nc4cccc(NC(C)=O)c4)nc32)c1 [Compound 156] | < 1e-08 M | < 1e-08 M |

Second part, the molecule after the results:

| IC50 (GSK3β) | IC50 (GSK3alpha) | Structure (SMILES) |
| --- | --- | --- |
| < 1e-08 M | < 1e-08 M | O=C(O)c1ccc(Nc2ncc3nnn(-c4ccccc4)c3n2)cc1 [Compound 123] |
| < 1e-08 M | < 1e-08 M | COc1ccc(Nc2ncc3nnn(-c4cccc(CNC(C)=O)c4)c3n2)cn1 [Compound 127] |
| 1e-08 to 1e-07 M | 1e-08 to 1e-07 M | CC(=O)NCc1cccc(-n2nnc3cnc(Nc4cccc(S(=O)(=O)NCCO)c4)nc32)c1 [Compound 131] |
| < 1e-08 M | < 1e-08 M | COCc1cccc(Nc2ncc3nnn(-c4cccc(COC)c4)c3n2)c1 [Compound 132] |
| < 1e-08 M | < 1e-08 M | COCc1cccc(-n2nnc3cnc(Nc4ccc(OC)nc4)nc32)c1 [Compound 133] |
| < 1e-08 M | < 1e-08 M | COC(=O)c1cc(Nc2ncc3nnn(-c4cccc(F)c4)c3n2)ccc1N [Compound 134] |
| < 1e-08 M | < 1e-08 M | COCc1cccc(-n2nnc3cnc(Nc4ccc(C(=O)O)c(Cl)c4)nc32)c1 [Compound 138] |
| < 1e-08 M | < 1e-08 M | COCc1cccc(-n2nnc3cnc(Nc4ccc(CCO)cc4)nc32)c1 [Compound 139] |
| < 1e-08 M | < 1e-08 M | CNS(=O)(=O)c1cccc(Nc2ncc3nnn(-c4cccc(CNC(C)=O)c4)c3n2)c1 [Compound 140] |
| < 1e-08 M | < 1e-08 M | COCc1cccc(-n2nnc3cnc(Nc4cccc(CO)c4)nc32)c1 [Compound 144] |
| < 1e-08 M | < 1e-08 M | OCCc1ccc(Nc2ncc3nnn(-c4cccc(F)c4)c3n2)cc1 [Compound 147] |
| 1e-08 to 1e-07 M | 1e-08 to 1e-07 M | COCc1cccc(-n2nnc3cnc(Nc4cccc(S(=O)(=O)NCCNC(C)=O)c4)nc32)c1 [Compound 154] |
| 1e-08 to 1e-07 M | < 1e-08 M | COCC(=O)NCc1cccc(-n2nnc3cnc(Nc4ccc(C(=O)O)cc4)nc32)c1 [Compound 155] |

Source: patent US7560458B2, “Triazolopyrimidine derivatives as glycogen synthase kinase 3 inhibitors” (Janssen Pharmaceutica, N.V., priority 2003, dated 2009)
